# Reference: US7566531B2, “Selective whole cell quartz crystal microbalance biosensors” (University of Massachusetts, priority 2003, dated 2009)
# Key:
# [1] = tested on: normal capillary endothelial cells; experiment: cell removal from QCM by PBS-EGTA; type: cell-based
# Description: The above-described QCM biosensor was used to study cells and the ECM made by the cells. 50,000 normal capillary endothelial cells were seeded onto the QCM and maintained in DMEM-10% Calf Serum for 3-4 days to synthesize ECM. The cells were then removed by incubating in PBS-0.25 mM EGTA three times for 6 hours according to the method described in Paige et al., Cell Dev. Biol., 27A:151-157, 1991. During this process, the frequency and resistance of the QCM were recorded and plotted.
# To corroborate this discovery, immunocytochemistry was carried out to examine actin stress fiber in the cells using standard techniques.
# MCF-7 cells [2] = experiment: whole cell QCM biosensor, Δf and ΔR after drug addition; type: cell-based, human; conditions: for QCM frequency decrease, Phase I / change in QCM resistance, Phase I: hour 0 to hour 6 post drug addition; for QCM frequency decrease, Phase I / change in QCM resistance, Phase I / QCM frequency increase, Phase II: 0.1 μM docetaxel, 10 μM paclitaxel; for QCM frequency increase, Phase II: hour 6 to hour 20 post drug addition
# Description: (§1) Normal human mammary epithelial cells (HMEC), estrogen receptor-positive human breast cancer cells (MCF-7, a non-metastatic, malignant mammary epithelial cells), and estrogen receptor-negative metastatic human breast cancer cells (MDA-MB-231) were used for this study. These commercially available cells were cultured and harvested as recommended by the supplier, American Type Cell Cultures (ATCC). The cells were then seeded onto the chemically modified conducting surface of separate whole cell QCM biosensors and were allowed to reach the steady state. In general, it takes about 12-14 hours (hours) or less (as quick as within 6 hours) for the cells to reach the steady state on the new selective whole cell QCM biosensors. In contrast, on a QCM biosensor without the selective substrate, it takes about 20-24 hours for the cells to reach steady state. Cell number-dependent characteristic Δf and ΔR shift values of these cells were recorded as described in Marx et al., Biosens. Bioelectron., 16(9-12):773-82, 2001.
# (§2) MCF-7 cells, which are resistant to paclitaxel treatment and MDA-MB-231 cells, which are sensitive to paclitaxel treatment were seeded onto two separate whole cell QCM biosensors and allowed to reach steady state as described above.
# (§3) Paclitaxel (Sigma Chemical Company) was dissolved in dimethylsulfoxide to make a stock solution. The stock solution was properly diluted in culture media before being added to the cells on the QCM biosensors, so that the final concentration was 10 μM. […] After adding paclitaxel, the Δf and ΔR of the QCMs were monitored and recorded hourly.
# (§4) MCF-7 cells and MDA-MB-231 cells were cultured and seeded onto QCM biosensors according to the method described above. The cells were then incubated with 0.1 μM docetaxel (Aventis Pharmaceuticals) and 10 μM paclitaxel. The changes in frequencies and resistances of the QCMs were monitored for 24 hours.
# MDA-MB-231 cells [3] = experiment: as above; type: cell-based, human; conditions: for QCM frequency decrease, Phase I / increase in QCM resistance, Phase I: hour 0 to hour 6 post drug addition; for QCM frequency decrease, Phase I / increase in QCM resistance, Phase I / QCM frequency increase, Phase II: 0.1 μM docetaxel, 10 μM paclitaxel; for QCM frequency increase, Phase II: hour 6 to hour 20 post drug addition
# Description: as §1, §2, §3, §4
# MCF-7 cells [4] = experiment: conventional proliferation assays and apoptosis assays; type: cell-based, human
# Description: (§5) To confirm that the changes in the QCM frequency and resistance are associated with changes in cell growth or apoptosis, conventional proliferation assays and apoptosis assays were conducted on MDA-MB-231 cells and MCF-7 cells treated with docetaxel or paclitaxel. […] For example, both drugs reduced the mitotic index of MCF-7 cells and eliminated that of MDA-MB-231.
# MDA-MB-231 cells [5] = experiment: as above; type: cell-based, human
# Description: as §5
# MCF-7 cells [6] = experiment: apoptosis assay (DAPI staining; Apoptotic Index and Mitotic Index); type: cell-based, human
# Description: (§6) Duplicate MCF-7 or MDA-MB-231 cells that were treated with the same dose of paclitaxel were analyzed using an apoptosis assay as described in Warren M. et al., Free Radic Biol Med. 29:537-47, 2000. Briefly, cells were fixed sequentially in 50% and 100% methanol for 5 minutes each. The cells were then stained with 4,6,diamidino-2-phenylindole (DAPI; Sigma) at a final concentration of 0.5 mg/ml at 37° C. for 30 minutes. After being air-dried and mounted with 1:3 PBS-glycerol, chromatin distribution in the cells were visualized by fluorescence. […] Apoptosis was scored as the percentage of apoptotic cells in relation to the total cell number (i.e., Apoptotic Index), corrected for baseline apoptosis. Mitotic cells were also identified and mitosis was scored as the percentage of the mitotic cells in relation to all of the cells (i.e., Mitotic Index).
# MDA-MB-231 cells [7] = experiment: as above; type: cell-based, human
# Description: as §6
# MCF-7 cells [8] = experiment: as above; type: cell-based, human; conditions: 10 μM
# [9] = PBS-0.25 mM EGTA, EGTA 1 at hour 112 after cell seeding
# [10] = 10 μM, 8 hours post paclitaxel addition
# [11] = 10 μM, 50 hours post paclitaxel addition
# [12] = 10 μM, between 8 and 50 hours post addition
structure (smiles),measurement,setting,value
O=C(O)CN(CCOCCOCCN(CC(=O)O)CC(=O)O)CC(=O)O [EGTA],ΔR on initial exposure,[1]; [9],large decrease
same,Δf on initial exposure,[1]; [9],large increase
same,time for frequency and resistance to return to stable values,"[1]; PBS-0.25 mM EGTA, first exposure",≤ 2 h
same,cell detachment from the surface,[1]; minute 120 after exposing to EGTA,most cells had detached
CC(=O)O[C@@]12CO[C@@H]1C[C@H](O)[C@@]1(C)C(=O)[C@H](O)C3=C(C)[C@@H](OC(=O)[C@H](O)[C@@H](NC(=O)OC(C)(C)C)c4ccccc4)C[C@@](O)([C@@H](OC(=O)c4ccccc4)[C@H]21)C3(C)C [docetaxel],"QCM frequency decrease, Phase I",MCF-7 cells [2],−50 Hz
same,"change in QCM resistance, Phase I",MCF-7 cells [2],little change
same,"QCM frequency increase, Phase II",MCF-7 cells [2],10-20 Hz
same,"QCM frequency decrease, Phase I",MDA-MB-231 cells [3],−70 Hz
same,"increase in QCM resistance, Phase I",MDA-MB-231 cells [3],20 Ohm
same,"QCM frequency increase, Phase II",MDA-MB-231 cells [3],98 Hz
same,apoptosis,MCF-7 cells [4],induced apoptosis
same,cell growth,MCF-7 cells [4],inhibited cell growth
same,mitotic index,MCF-7 cells [4],reduced
same,apoptosis,MDA-MB-231 cells [5],induced apoptosis
same,cell growth,MDA-MB-231 cells [5],inhibited cell growth
same,mitotic index,MDA-MB-231 cells [5],eliminated
CC(=O)O[C@H]1C(=O)[C@@]2(C)[C@H]([C@H](OC(=O)c3ccccc3)[C@]3(O)C[C@H](OC(=O)[C@H](O)[C@@H](NC(=O)c4ccccc4)c4ccccc4)C(C)=C1C3(C)C)[C@]1(OC(C)=O)CO[C@@H]1C[C@@H]2O [paclitaxel],Apoptotic Index (AI),"MCF-7 cells [6]; 3 hours, 10 uM",<1%
same,Mitotic Index (MI),"MCF-7 cells [6]; 3 hours, 10 uM",1%
same,Apoptotic Index (AI),"MCF-7 cells [6]; 6 hours, 0.1 uM",1%
same,Mitotic Index (MI),"MCF-7 cells [6]; 6 hours, 0.1 uM",1%
same,Apoptotic Index (AI),"MCF-7 cells [6]; 6 hours, 1.0 uM",4.5%
same,Mitotic Index (MI),"MCF-7 cells [6]; 6 hours, 1.0 uM",0%
same,Apoptotic Index (AI),"MCF-7 cells [6]; 6 hours, 10 uM",11%
same,Mitotic Index (MI),"MCF-7 cells [6]; 6 hours, 10 uM",0%
same,Apoptotic Index (AI),"MCF-7 cells [6]; 12 hours, 10 uM",25%
same,Mitotic Index (MI),"MCF-7 cells [6]; 12 hours, 10 uM",0%
same,Apoptotic Index (AI),"MCF-7 cells [6]; 24 hours, 10 uM",33%
same,Mitotic Index (MI),"MCF-7 cells [6]; 24 hours, 10 uM",0%
same,"start of obvious cell shape change and eventually apoptosis, time post paclitaxel addition",MDA-MB-231 cells [7]; 10 μM,8 h
same,Apoptotic Index (AI),"MDA-MB-231 cells [7]; 3 hours, 10 uM",<1%
same,Mitotic Index (MI),"MDA-MB-231 cells [7]; 3 hours, 10 uM",0%
same,Apoptotic Index (AI),"MDA-MB-231 cells [7]; 6 hours, 0.1 uM",1%
same,Mitotic Index (MI),"MDA-MB-231 cells [7]; 6 hours, 0.1 uM",0%
same,Apoptotic Index (AI),"MDA-MB-231 cells [7]; 6 hours, 1.0 uM",8.5%
same,Mitotic Index (MI),"MDA-MB-231 cells [7]; 6 hours, 1.0 uM",0%
same,Apoptotic Index (AI),"MDA-MB-231 cells [7]; 6 hours, 10 uM",10%
same,Mitotic Index (MI),"MDA-MB-231 cells [7]; 6 hours, 10 uM",0%
same,Apoptotic Index (AI),"MDA-MB-231 cells [7]; 12 hours, 10 uM",40%
same,Mitotic Index (MI),"MDA-MB-231 cells [7]; 12 hours, 10 uM",0%
same,Apoptotic Index (AI),"MDA-MB-231 cells [7]; 24 hours, 10 uM",84%
same,Mitotic Index (MI),"MDA-MB-231 cells [7]; 24 hours, 10 uM",0%
same,ΔR decrease immediately after adding the drug,MCF-7 cells [2]; 10 μM,50 Ω
same,ΔR,MCF-7 cells [2]; [10],about 40 Ω
same,Δf,MCF-7 cells [2]; [10],−300 Hz
same,ΔR,MCF-7 cells [2]; [11],about 20 Ω
same,Δf,MCF-7 cells [2]; [11],−260 Hz
same,magnitude of change of ΔR,MCF-7 cells [2]; [12],20 Ω
same,magnitude of change of Δf,MCF-7 cells [2]; [12],40 Hz
same,"QCM frequency decrease, Phase I",MCF-7 cells [2],−20 Hz
same,"change in QCM resistance, Phase I",MCF-7 cells [2],little change
same,"QCM frequency increase, Phase II",MCF-7 cells [2],50 Hz
same,ΔR increase immediately after adding the drug,MDA-MB-231 cells [3]; 10 μM,about 70 Ω
same,ΔR,MDA-MB-231 cells [3]; [10],about 80 Ω
same,Δf,MDA-MB-231 cells [3]; [10],−250 Hz
same,ΔR,MDA-MB-231 cells [3]; [11],about 40 Ω
same,Δf,MDA-MB-231 cells [3]; [11],−110 Hz
same,magnitude of change of ΔR,MDA-MB-231 cells [3]; [12],40 Ω
same,magnitude of change of Δf,MDA-MB-231 cells [3]; [12],140 Hz
same,"QCM frequency decrease, Phase I",MDA-MB-231 cells [3],−20 Hz
same,"increase in QCM resistance, Phase I",MDA-MB-231 cells [3],little change
same,"QCM frequency increase, Phase II",MDA-MB-231 cells [3],60 Hz
same,apoptosis,MCF-7 cells [4],induced apoptosis
same,cell growth,MCF-7 cells [4],inhibited cell growth
same,mitotic index,MCF-7 cells [4],reduced
same,apoptosis,MDA-MB-231 cells [5],induced apoptosis
same,cell growth,MDA-MB-231 cells [5],inhibited cell growth
same,mitotic index,MDA-MB-231 cells [5],eliminated
same,"start of obvious cell shape change and eventually apoptosis, time post paclitaxel addition",MCF-7 cells [8],8 h
